# Results taken from patent publication US4048431A, “Alkylated derivatives of antibiotic BM123γ” (American Cyanamid Company, priority 1975, dated 1977).
# Tested on: Escherichia coli US311
# Test: in vivo protection of mice against lethal Escherichia coli US311 infection (single subcutaneous dose)
# Set-up: species or system Escherichia coli US311 in Carworth Farms CF-1 mice
# Conditions: Carworth Farms CF-1 mice, about 20 gm., infected intraperitoneally with lethal dose of E. coli US311 (10^-3 TSP dilution of 5 hour TSP blood culture)
# Experimental: These new substances show high in vivo antibacterial activity in mice against Escherichia coli US311 when administered by a single subcutaneous dose to groups of Carworth Farms CF-1 mice, weight about 20 gm., infected intraperitoneally with a lethal dose of this bacteria in a 10^- 3 trypticase soy broth TSP dilution of a 5 hour TSP blood culture. In Table VI below is set forth the in vivo activity of typical products of this invention (prepared from the indicated carbonyl reagents) against Escherichia coli US311 in mice. The activity is expressed in terms of the ED50 or the dose in mg./kg. of body weight required to protect 50% of the mice against E. coli.
row,Substance,ED50 (dose required to protect 50% of the mice against E. coli)
1,1-isopropyl-4-methylpentyl-BM123γ,0.39 mg./kg. of body weight
2,"1-methyl-2,2-dimethoxyethyl-BM123γ",0.5 mg./kg. of body weight
3,1-methyl-2-(2-chlorophenyl)ethyl-BM123γ,0.37 mg./kg. of body weight
4,1-methyl-2-(2-methoxyphenyl)ethyl-BM123γ,0.7 mg./kg. of body weight
5,1-methyl-2-(3-chlorophenyl)ethyl-BM123γ,0.38 mg./kg. of body weight
6,1-methyl-2-(3-hydroxy-2-methylpropyl)-BM123γ,0.18 mg./kg. of body weight
7,1-methyl-2-(3-methoxyphenyl)ethyl-BM123γ,0.30 mg./kg. of body weight
8,1-methyl-2-(4-chlorophenyl)ethyl-BM123γ,0.25 mg./kg. of body weight
9,"1-methyl-2-(N,N-dimethylamino)propyl-BM123γ",1.5 mg./kg. of body weight
10,"1-methyl-2-(N,N-dipropylamino)-ethyl-BM123γ",0.3 mg./kg. of body weight
11,1-methyl-2-(β-indolyl)ethyl-BM123γ,0.12 mg./kg. of body weight
12,1-methyl-2-acetylethyl-BM123γ,1.5 mg./kg. of body weight
13,1-methyl-2-carboethoxypropyl-BM123γ,0.18 mg./kg. of body weight
14,1-methyl-2-chloro-2-carbethoxyethyl-BM123γ,1.5 mg./kg. of body weight
15,1-methyl-2-cyclohexylethyl-BM123γ,0.18 mg./kg. of body weight
16,1-methyl-2-cyclopenten(-2-)-yl-ethyl-BM123γ,< 0.12 mg./kg. of body weight
17,1-methyl-2-ethylbutyl-BM123γ,0.18 mg./kg. of body weight
18,1-methyl-2-hydroxypropyl-BM123γ,0.37 mg./kg. of body weight
19,1-methyl-2-methoxyethyl-BM123γ,0.3 mg./kg. of body weight

row,Substance,ED50 (dose required to protect 50% of the mice against E. coli)
1,1-methyl-2-o-[tolylcarbamoylethyl]-BM123γ,0.25 mg./kg. of body weight
2,1-methyl-2-phenoxyethyl-BM123γ,0.3 mg./kg. of body weight
3,1-methyl-2-phenylethyl-BM123γ,0.18 mg./kg. of body weight
4,"1-methyl-3,3-dimethoxypropyl-BM123γ",0.75 mg./kg. of body weight
5,1-methyl-3-(4-hydroxyphenyl)ethyl-BM123γ,0.3 mg./kg. of body weight
6,"1-methyl-3-(N,N-diethylamino)propyl-BM123γ",0.18 mg./kg. of body weight
7,1-methyl-3-methoxypropen(-2-)yl-BM123γ,> 2.0 mg./kg. of body weight
8,1-methyl-3-phenylpropen(-2-)yl-BM123γ,0.25 mg./kg. of body weight
9,1-methyl-3-phenylpropyl-BM123γ,0.38 mg./kg. of body weight
10,"1-methyl-4-(N,N-diethylamino)butyl-BM123γ",0.5 mg./kg. of body weight
11,1-methyl-4-chlorobutyl-BM123γ,0.37 mg./kg. of body weight
12,1-methyl-4-hydroxybutyl-BM123γ,0.18 mg./kg. of body weight
13,1-methyl-4-piperidyl-BM123γ,0.75 mg./kg. of body weight
14,1-methyl-5-pentenyl-BM123γ,0.18 mg./kg. of body weight
15,1-methyl-butyn(-2-)yl-BM123γ,< 2.0 mg./kg. of body weight
16,1-methyl-hexen-4-yl-BM123γ,0.18 mg./kg. of body weight
17,1-methyl-penten(-4-)yl-BM123γ,0.38 mg./kg. of body weight
18,1-methylbutyl-BM123γ,< 0.12 mg./kg. of body weight
19,1-methyldecyl-BM123γ,> 2 mg./kg. of body weight

row,Substance,ED50 (dose required to protect 50% of the mice against E. coli)
1,1-methylheptyl-BM123γ,0.38 mg./kg. of body weight
2,1-methylhexyl-BM123γ,0.38 mg./kg. of body weight
3,1-methylnonyl-BM123γ,0.18 mg./kg. of body weight
4,1-methyloctyl-BM123γ,0.37 mg./kg. of body weight
5,1-methylpentyl-BM123γ,0.38 mg./kg. of body weight
6,1-methylpropyl-BM123γ,< 0.12 mg./kg. of body weight
7,1-methyltridecyl-BM123γ,2.0 mg./kg. of body weight
8,1-propylbutyl-BM123γ,0.25 mg./kg. of body weight
9,1-propylpentyl-BM123γ,0.39 mg./kg. of body weight
10,"2,2,4,4-tetramethylcyclopentyl-BM123γ",0.75 mg./kg. of body weight
11,"2,2-dimethylbutyl-BM123γ",0.12 mg./kg. of body weight
12,"2,2-dimethylpropyl-BM123γ",0.18 mg./kg. of body weight
13,"2,4,4-trimethylcyclopentyl-BM123γ",0.3 mg./kg. of body weight
14,"2,4-dimethylcyclopentyl-BM123γ",0.18 mg./kg. of body weight
15,2-(1-cyclohexen)cyclohexyl-BM123γ,0.19 mg./kg. of body weight
16,2-(p-methoxyphenyl)ethyl-BM123γ,0.18 mg./kg. of body weight
17,2-(tert-butylcarbamoyl)-1-methyl-ethyl-BM123γ,0.38 mg./kg. of body weight
18,2-acetamido-1-methylpropyl-BM123γ,0.50 mg./kg. of body weight
